A short description of test [1]: Competitive inhibition of VGLUT-mediated [3H]-L-Glu uptake into synaptic vesicles in rat brain by Lineweaver-Burk plot analysis. The test is classed as tissue-based.
A short description of test [2]: Inhibition of VGLUT-mediated [3H]-L-Glu uptake into synaptic vesicles in rat brain. The test is classed as tissue-based.
The species named for a further test is Rattus norvegicus. Briefly: Inhibition of VGLUT in rat brain assessed as [3H]-L-Glu uptake into synaptic vesicles at 250 uM relative to control. In kind it is tissue-based.
Test [3] can be described thus: Inhibition of VGLUT (unknown origin). The arrangement: species or system Homo sapiens.

By Ki is commonly meant a measure of affinity in units of concentration, obtained from inhibition or displacement. One may read the IC50 as the concentration at which inhibition is half-maximal. Low values mean greater potency, high ones weaker potency. What is called inhibition is the drop in the measured response relative to a control, in per cent.

Structures are written as SMILES.

In test [1], `CC(=O)[C@H]1CC[C@H]2[C@@H]3CC[C@@H]4C[C@@H](OS(=O)(=O)O)CC[C@]4(C)[C@H]3CC[C@]12C` came in with a Ki of 22 µM. The molecule further showed a 50% inhibitory concentration (IC50) in test [2] of 42 µM. For the same molecule, the inhibition in the test listed under Rattus norvegicus amounted to 15%.

For the molecule `CC(=O)C1CCC2C3CC=C4CC(OS(=O)(=O)O)CCC4(C)C3CCC12C` (centres undefined), in the test filed under Rattus norvegicus, the inhibition turned out to be 31%. For `N[C@@]1(C(=O)O)CC[C@@H](C(=O)O)C1`, the inhibition constant Ki in test [3] was found to be 700 µM. `C[C@]12CC[C@@H]3c4ccc(OC(=O)CCC(=O)O)cc4CC[C@H]3[C@@H]1CCC2=O`: in the test listed under Rattus norvegicus, the inhibition amounted to 109%. On to `C[C@]12CC[C@@H]3c4ccc(O)cc4CC[C@H]3[C@@H]1CCC2=O`, for which, in the test listed under Rattus norvegicus, the inhibition turned out to be 98%. The molecule `Cc1cc(-c2ccc(/N=N/c3c(S(=O)(=O)O)cc4cc(S(=O)(=O)O)cc(N)c4c3O)c(C)c2)ccc1/N=N/c1c(S(=O)(=O)O)cc2cc(S(=O)(=O)O)cc(N)c2c1O` [TRYPAN BLUE] gave a Ki in test [3] of 0.05 µM.

In the case of `CC(=O)[C@H]1CC[C@H]2[C@@H]3CC=C4C[C@@H](O)CC[C@]4(C)[C@H]3CC[C@]12C`, the inhibition in the test listed under Rattus norvegicus worked out at 100%. On to `CC(=O)O[C@H]1CC[C@@]2(C)C(=CC[C@H]3[C@@H]4CC[C@H](C(C)=O)[C@@]4(C)CC[C@@H]32)C1`, for which the inhibition in the test listed under Rattus norvegicus came out at 86%. Turning to `O=C(O)c1cc(C(=O)O)c2ccc3cc4ccccc4cc3c2n1`, it took 70 µM to reach half-maximal inhibition in test [2] (IC50). Moreover, the inhibition in the test listed under Rattus norvegicus was determined as 26%. Take `O=C(O)c1cc(C(=O)O)c2c(ccc3cc4ccccc4cc32)n1`: inhibition in test [2] was half-maximal at 71 µM (IC50). Also, in the test filed under Rattus norvegicus, the inhibition is 17%.
